Several values for one entry are separate records, joined by “and”; a condition that tells them apart may be missing. Identical values can stand only once.
Columns and labels:
[1] = test system: H460 (human non small cell lung cancer cell line); assay: RT-CES system cell proliferation/cytotoxicity, H460; format: cell-based; conditions: NCI-H460, time point of maximum inhibition
Method: In operation, the devices with cells cultured in the wells are placed into a device station that is located inside an incubator. […] Under the RT-CES software control, the sensor analyzer can automatically select wells to be measured and continuously conduct impedance measurements. The impedance data from the analyzer is transferred to a computer, analyzed and processed by the integrated software.
To quantify cell status based on the measured cell-electrode impedance, a parameter termed Cell Index is derived, according to
[formula] where Rb(f) and Rcell(f) are the frequency dependent electrode resistances (a component of impedance) without cells or with cell present, respectively. N is the number of the frequency points at which the impedance is measured. Thus, Cell Index is a quantitative measure of the status of the cells in an electrode-containing well. Under the same physiological conditions, more cells attached on to the electrodes leads to larger Rcell(f) value, leading to a larger value for Cell Index. Furthermore, for the same number of cells present in the well, a change in the cell status such as morphology will lead to a change in the Cell Index. For example, an increase in cell adhesion or cell spreading leads to larger cell-electrode contact area which will lead to an increase in Rcell(f) and thus a larger value for Cell Index.
H460 cells (human lung cancer cells) were seeded into wells of 16× or 96× microtiter plate devices (electronic plates, i.e., the plates comprise microelectrode sensor arrays in the wells of the plate) with an initial seeding density of 8000 cells per well and were pre-incubated in incubator under standard cell culture conditions for about 22 hrs. […] The cell status was monitored prior to and after the compound addition using RT-CES system. […] The cell index was normalized against the cell index values at a time point just after compound addition (about 23 hrs after cell seeding).
For the assay performed on the RT-CES system, the cells were seeded into the 16× or 96× microtiter plate devices (electronic plates, i.e., the plates comprise microelectrode sensor arrays in the wells of the plate) at the seeding density ranging from 5000 cells/well to 15,000 cells/well. The cells were incubated at 5% CO2 and 37° C. for overnight till the cell indices reached the growth phase where the cell index was between 0.8 and 1.2. Serially diluted compounds were then added to the cells followed by dynamic monitoring of the effect of the compounds on the cell proliferation and cytotoxicity. The time-dependent IC50 values for each derivative were calculated based the dose responses of cell index value at different time points after compound treatment.

[2] = test system: microtubules in COS cells; assay: Microtubule network in cultured COS cells (anti-tubulin immunofluorescence, confocal microscopy); format: cell-based
Method: Cell Culture and Immunocytochemistry. COS cells were grown in DMEM media supplemented with non-essential amino acids, 10% FBS, antibiotic-antimycotic (Gibco BRL) at 37° C. and 5.5% CO2. […] Cells were then rinsed once with warm PBS, fixed with cold methanol, rinsed again in PBS and blocked overnight at 4° C. in PBT (PBS, 1% BSA, 0.5% Triton X-100). All subsequent stains and washes were done in PBT at room temperature unless stated otherwise. Cells were stained with the anti-tubulin mouse antibody DM-1 at 1:1000 for 1 hour, washed four times for 15 minutes each and then treated with Cy-3 conjugated goat anti mouse antibody at 1:100 for 1 hour in the dark. Next, samples were washed four times for 15 minutes each in PBT in the dark followed by a final 15 minute wash in PBS in the dark. Samples were then viewed by laser scanning confocal microscopy.

[3] = test system: purified bovine brain tubulin; assay: In vitro microtubule assembly assay with pure (MAP-free) tubulin, light scattering OD400; format: biochemical
Method: Microtubule Assembly Assays. Microtubule seeds were synthesized by incubating purified bovine brain tubulin with 1 mM GTP, 10% glycerol and 10% DMSO at 35° C. for 30 minutes, followed by shearing by passing the assembled microtubules 6 times through a 27 gauge needle. Microtubule assembly was assayed by adding 27.5 ul of microtubule seeds to spectrophotometer cuvettes (maintained at 35° C.) containing 247.5 ul purified bovine brain tubulin in a PEM-100 buffer (100 mM Pipes pH=6.8, 1 mM […], 1 mM MgSO4) supplemented with 1 mM GTP (and drug where applicable) and monitoring the OD400 for 2 hours. Since the compounds are dissolved in DMSO and DMSO can have a significant effect on microtubule assembly, DMSO was added to all cuvettes so as to equal the largest volume of drug added to reactions. It should be noted that the initial velocity of the microtubule assembly reactions is so fast that one can not always catch the initial rise on the light scattering profile because it is occurring while samples are being prepared. However, all samples start at the same optical density, since they are identical with the exception of the drug being introduced.

[4] = test system: ao10/17 human ovarian cancer; assay: ao10/17 human ovarian cancer xenograft in nude mice (Example 4); format: in vivo; conditions: for tumor inhibition rate %: vs solvent control
Method: Only female mice were used in this study. […] The high, middle and low doses of ACEA100108 were 50, […] and 8 mg/kg/d, respectively.
Preparation and Administration of Test Compounds. […] The high, middle and low dose of compound ACEA100108 was 50, 20 and 8 mg/kg, respectively.
The tumor tissues were grounded in normal saline (1:6 for tumor volume to saline volume) and tumor cell suspensions were prepared in the normal saline.
For the human ovarian cancer xenograft model, all used materials, including animal food, animal cage, supporting materials and apparatus contacted by animals, were high-pressure sterilized. Nude mice were maintained in laminar flow shelves under SPF condition. After tumor transplantation, mouse weight and tumor size in each compound dosage group were dynamically monitored and plotted. The tumor size was determined by measuring the major axis (a) and minor axis (b) of the tumor, and tumor volume was calculated according to the equation (3) in Example 3.

[5] = test system: P388 lymphocytic leukemia; assay: Murine P388 lymphocytic leukemia model (intraperitoneal transplantation), life span; format: in vivo, mouse; conditions: 12.5 mg/kg/d iv x7 qd
Method: Both male and female mice were used.
Preparation and Administration of Test Compounds.
To prepare cancer cells for the P388 murine lymphocytic leukemia model, ascites of a P388 leukemia-bearing mouse were removed under sterile condition. The ascites were diluted in normal saline (1:6 for ascites to normal saline) to prepare cell suspension. 0.2 mL of the cell suspension was then injected intraperitoneally. […] The life span of carrier mice was determined within 30 days. The life span ratio comparing to the negative control group of the carrier mice in each compound treatment group was calculated according to the formula: Life span ratio %=average life span for the compound treatment group/average life span for the negative control group×100% (4)

[6] = 8 mg/kg iv x7 qd, 7 D after transplantation
[7] = 20 mg/kg iv x7 qd, 7 D after transplantation
[8] = 50 mg/kg iv x7 qd, 7 D after transplantation

`Fc1ccc(CSSSCc2ccc(F)cc2)cc1` [ACEA100108, Di(p-fluorobenzyl)trisulfide] was tested, and the IC50 [1] was 9.2 µM, the Microtubule network appearance ([2]; 4 hours exposure) was “the microtubule network is markedly altered at all concentrations tested” and the Microtubule network appearance ([2]; 24 hours, 1 uM and 3 uM) was “appear relatively normal”. For the same compound, the Microtubule network appearance ([2]; 24 hours, 9 uM) was “the microtubules appear short and the network is abnormal”, the “Effect on extent of microtubule assembly” value ([3]; 27 uM) was “marked inhibitory effect” and the “Effect on microtubule assembly” value ([3]; lower dosages) was “minimal effects upon microtubule assembly”. For the same compound, the “Body weight of mice” value ([4]; 8 mg/kg iv x7 qd, 0 d (beginning)) was 17.7 g and 17.7 ± 0.5 g, the “Mice with palpable tumor / total mice” value [4, 6] was 3/6 and the “Tumor volume (cm^3)” value [4, 6] was 0.01 cm^3. The “Body weight of mice” value ([4]; 8 mg/kg iv x7 qd, 7 d) was 19 ± 0.6 g, the “Body weight of mice” value ([4]; 8 mg/kg iv x7 qd, 14 d) was 20.5 ± 1 g and the “Tumor volume (cm^3)” value ([4]; 8 mg/kg iv x7 qd, 14 d) was 0.048 ± 0.03 cm^3. For the same compound, the “Body weight of mice” value ([4]; 8 mg/kg iv x7 qd, 21 d) was 21.2 ± 0.8 g, the “Tumor volume (cm^3)” value ([4]; 8 mg/kg iv x7 qd, 21 d) was 0.249 ± 0.05 cm^3 and the “Tumor volume (cm^3)” value ([4]; 8 mg/kg iv x7 qd, 24 d) was 0.89 ± 0.39 cm^3. For the same compound, the “Body weight of mice” value ([4]; 8 mg/kg iv x7 qd, 24 d (end)) was 22.2 g and 22.2 ± 0.8 g, the “Tumor weight” value ([4]; 8 mg/kg/d iv x7 qd) was 0.942 ± 0.14 g and the “tumor inhibition rate %” value ([4]; 8 mg/kg/d iv x7 qd) was 33.19%. The “Mice with palpable tumor / total mice” value [4, 7] was 2/6, the “Tumor volume (cm^3)” value [4, 7] was 0.01 cm^3 and the “Body weight of mice” value ([4]; 20 mg/kg iv x7 qd, 7 d) was 18.3 ± 0.8 g. For the same compound, the “Body weight of mice” value ([4]; 20 mg/kg iv x7 qd, 14 d) was 19.8 ± 0.8 g, the “Tumor volume (cm^3)” value ([4]; 20 mg/kg iv x7 qd, 14 d) was 0.03 ± 0.02 cm^3 and the “Body weight of mice” value ([4]; 20 mg/kg iv x7 qd, 21 d) was 20.5 ± 1 g. The “Tumor volume (cm^3)” value ([4]; 20 mg/kg iv x7 qd, 21 d) was 0.206 ± 0.03 cm^3, the “Tumor volume (cm^3)” value ([4]; 20 mg/kg iv x7 qd, 24 d) was 0.402 ± 0.1 cm^3 and the “Body weight of mice” value ([4]; 20 mg/kg iv x7 qd, 24 d (end)) was 22.0 g and 22.0 ± 1.4 g. The “Tumor weight” value ([4]; 20 mg/kg/d iv x7 qd) was 0.752 ± 0.12 g, the “tumor inhibition rate %” value ([4]; 20 mg/kg/d iv x7 qd) was 46.67% and the “Body weight of mice” value ([4]; 50 mg/kg iv x7 qd, 0 d (beginning)) was 17.2 g and 17.2 ± 0.8 g. For the same compound, the “Mice with palpable tumor / total mice” value [4, 8] was 1/6, the “Tumor volume (cm^3)” value [4, 8] was 0.01 cm^3 and the “Body weight of mice” value ([4]; 50 mg/kg iv x7 qd, 7 d) was 16.7 ± 0.8 g. The “Body weight of mice” value ([4]; 50 mg/kg iv x7 qd, 14 d) was 17.8 ± 1.5 g, the “Mice with palpable tumor / total mice” value ([4]; 50 mg/kg iv x7 qd, 14 d) was 6/6 and the “Tumor volume (cm^3)” value ([4]; 50 mg/kg iv x7 qd, 14 d) was 0.01 cm^3. For the same compound, the “Body weight of mice” value ([4]; 50 mg/kg iv x7 qd, 21 d) was 19.3 ± 1 g, the “Tumor volume (cm^3)” value ([4]; 50 mg/kg iv x7 qd, 21 d) was 0.148 ± 0.02 cm^3 and the “Tumor volume (cm^3)” value ([4]; 50 mg/kg iv x7 qd, 24 d) was 0.316 ± 0.06 cm^3. For the same compound, the “Body weight of mice” value ([4]; 50 mg/kg iv x7 qd, 24 d (end)) was 21.3 g and 21.3 ± 1.2 g, the “Tumor weight” value ([4]; 50 mg/kg/d iv x7 qd) was 0.657 ± 0.13 g and the “tumor inhibition rate %” value ([4]; 50 mg/kg/d iv x7 qd) was 53.40%. For the same compound, the “animal No. beginning/end (survivors)” value [5] was 10/0, the “Average life span X ± SD” value ([5]; observed within 30 days) was 10.6 ± 0.84 and the “Life span ratio %” value ([5]; vs solvent control) was 109.28%.

Source: patent US8334316B2, “Substituted organosulfur compounds and methods of using thereof” (ACEA Biosciences, Inc., priority 2004, dated 2012)
